Measured values taken from PubChem BioAssay (NCI).
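GI50: concentration for 50% inhibition of growth. The concentration for full growth arrest is given as TGI.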

How the values were obtained:
Experiment in all cases: growth of human tumour cells (NCI), 384-well format
[1] = tested on: A498 renal
[2] = tested on: A549 NSCLC
[3] = tested on: ACHN renal
[4] = tested on: BT-549 breast
[5] = tested on: CAKI-1 renal
[6] = tested on: CCRF-CEM leukemia
[7] = tested on: COLO 205 colon
[8] = tested on: DU-145 prostate
[9] = tested on: EKVX NSCLC
[10] = tested on: HCC-2998 colon
[11] = tested on: HCT-116 colon
[12] = tested on: HCT-15 colon
[13] = tested on: HL-60(TB) leukemia
[14] = tested on: HOP-62 NSCLC
[15] = tested on: HOP-92 NSCLC
[16] = tested on: HS 578T breast
[17] = tested on: HT29 colon
[18] = tested on: IGROV1 ovarian
[19] = tested on: LOX IMVI melanoma
[20] = tested on: M14 melanoma
[21] = tested on: MALME-3M melanoma
[22] = tested on: MCF7 breast
[23] = tested on: MDA-MB-231 breast
[24] = tested on: MDA-MB-435 melanoma
[25] = tested on: MDA-MB-468 breast
[26] = tested on: NCI-H226 lung
[27] = tested on: NCI-H23 lung
[28] = tested on: NCI-H522 lung
[29] = tested on: OVCAR-3 ovarian
[30] = tested on: OVCAR-4 ovarian
[31] = tested on: OVCAR-8 ovarian
[32] = tested on: RPMI-8226 leukemia
[33] = tested on: RXF 393 renal
[34] = tested on: SF-268 CNS
[35] = tested on: SF-539 CNS
[36] = tested on: SK-MEL-2 melanoma
[37] = tested on: SK-MEL-5 melanoma
[38] = tested on: SK-OV-3 ovarian
[39] = tested on: SN12C renal
[40] = tested on: SNB-75 CNS
[41] = tested on: SR leukemia
[42] = tested on: SW-620 colon
[43] = tested on: T-47D breast
[44] = tested on: TK-10 renal
[45] = tested on: U251 glioblastoma
[46] = tested on: UACC-257 melanoma
[47] = tested on: UACC-62 melanoma

CC(=O)N1CCC(Nc2cc(C(=O)NC[C@H](O)CN3CCc4ccccc4C3)ncn2)CC1
GI50 [1]: > 100 µM | TGI [1]: > 100 µM | GI50 [2]: > 100 µM | TGI [2]: > 100 µM | GI50 [3]: > 100 µM | TGI [3]: > 100 µM | GI50 [4]: > 100 µM | TGI [4]: > 100 µM | GI50 [5]: > 100 µM | TGI [5]: > 100 µM | GI50 [6]: > 100 µM | TGI [6]: > 100 µM | GI50 [7]: > 100 µM | TGI [7]: > 100 µM | GI50 [8]: > 100 µM | TGI [8]: > 100 µM | GI50 [9]: > 100 µM | TGI [9]: > 100 µM | GI50 [10]: > 100 µM | TGI [10]: > 100 µM | GI50 [11]: > 100 µM | TGI [11]: > 100 µM | GI50 [12]: > 100 µM | TGI [12]: > 100 µM | GI50 [13]: > 100 µM | TGI [13]: > 100 µM | GI50 [14]: > 100 µM | TGI [14]: > 100 µM | GI50 [15]: > 28.1 µM | TGI [15]: > 100 µM | GI50 [16]: > 100 µM | TGI [16]: > 100 µM | GI50 [17]: > 100 µM | TGI [17]: > 100 µM | GI50 [18]: > 100 µM | TGI [18]: > 100 µM | GI50 [19]: > 100 µM | TGI [19]: > 100 µM | GI50 [20]: > 100 µM | TGI [20]: > 100 µM | GI50 [21]: > 100 µM | TGI [21]: > 100 µM | GI50 [22]: > 36.8 µM | TGI [22]: > 100 µM | GI50 [23]: > 100 µM | TGI [23]: > 100 µM | GI50 [24]: > 100 µM | TGI [24]: > 100 µM | GI50 [25]: 29.5 µM | TGI [25]: > 100 µM | GI50 [26]: > 100 µM | TGI [26]: > 100 µM | GI50 [27]: > 100 µM | TGI [27]: > 100 µM | GI50 [28]: > 100 µM | TGI [28]: > 100 µM | GI50 [29]: > 100 µM | TGI [29]: > 100 µM | GI50 [30]: 4.44 µM | TGI [30]: > 100 µM | GI50 [31]: > 100 µM | TGI [31]: > 100 µM | GI50 [32]: 61.6 µM | TGI [32]: > 100 µM | GI50 [33]: > 100 µM | TGI [33]: > 100 µM | GI50 [34]: > 100 µM | TGI [34]: > 100 µM | GI50 [35]: > 100 µM | TGI [35]: > 100 µM | GI50 [36]: > 100 µM | TGI [36]: > 100 µM | GI50 [37]: > 100 µM | TGI [37]: > 100 µM | GI50 [38]: > 100 µM | TGI [38]: > 100 µM | GI50 [39]: > 100 µM | TGI [39]: > 100 µM | GI50 [40]: > 100 µM | TGI [40]: > 100 µM | GI50 [41]: 0.183 µM | TGI [41]: > 100 µM | GI50 [42]: > 35.6 µM | TGI [42]: > 100 µM | GI50 [43]: 0.658 µM | TGI [43]: > 100 µM | GI50 [44]: > 100 µM | TGI [44]: > 100 µM | GI50 [45]: > 100 µM | TGI [45]: > 100 µM | GI50 [46]: > 100 µM | TGI [46]: > 100 µM | GI50 [47]: > 100 µM | TGI [47]: > 100 µM
